Results reported in US10316008B2, “KCNQ potassium channel agonist, and preparation method therefor and use thereof” (SHANGHAI INSTITUTE OF MATERIA MEDICA, CHINESE ACADEMY OF …, priority 2014, dated 2019).
Entries after “also recorded” stand apart in the source; their conditions may differ. Counter-ions that a name gives are not always drawn. Like-named read-outs stand apart in the source and are kept apart here.

Tests used:
[1] = test system: convulsive mice induce by MES; assay: MES (maximum electroshock) induced convulsion model, oral perfusion; assay type: in vivo, KM mice; conditions: for efficacy against MES compared with RTG / ED50: mice; for ED50: Mus musculus, 0.5 h, oral perfusion, MES 30 mins after administration, read-out: ED50 (50% effective dose); for protective effect on convulsive mice induce by MES: orally administered
Text: YLS-9A model physiological pharmaceutical electronic stimulator was used in the experiment to induce convulsion of mice, and specific parameters were set as follows: configuration 8, stimulating voltage: 160V, period of stimulation: 5.4 sec. Healthy KM mice (SPF level, male, body weight: 18 to 22 g) were selected for the experiment. After the ear tip of the mice was sufficiently wetted with physiological saline, the mice was electrically stimulated once with ear clip electrode, and tonic hind-limb seizure was deemed as indication of convulsion. The mice were screened one day before the experiment to weed out the dead mice and the ones without generalized tonic seizure. The qualified mice were caged randomly with access to water at liberty. Before the experiment started, the mice were fasted for 8 h.
The compounds to be tested were freshly formulated on the day of experiment. RTG hydrochloride was dissolved with ultrapure water to obtain a solution with desired concentration. K41.HCl and K43.HCl were formulated with 5% DMSO+95% of 1% Tween80, that is, a proper amount of the compound to be tested was weighted and, first, sufficiently dissolved in 5% DMSO, and then added with a desire volume of 1% Tween80 to be sufficiently suspended to form a suspension with a certain drug concentration. The mice screened one day before were randomly grouped with each group having 10 mice, marked, weighted and then administered with the compound to be tested or solvent (5% DMSO+95% (1% Tween 80)) by oral perfusion with administered volume of 0.2 ml/10 g. The dose range for each compound was 1 to 56 mg/kg for RTG, 1 to 40 mg/kg for K41.HCl, and 0.5 to 4 mg/kg for K43.HCl. 30 mins after administration, MES experiment was performed and the experimental parameters were the same as the above. The number of mice with generalized tonic-clonic convulsion in each group was recorded, the protection rate of each of the compounds to be tested on convulsive mice induce by MES was calculated and dose-response curve for each compound was plotted. The dose-response curve for each compound was obtained according to the analysis of Graphpad Prism 5 software, as shown in FIG. 3.

[2] = test system: motor coordination ability of mice; assay: Rotarod experiment, motor coordination ability (acute neurotoxicity); assay type: in vivo, KM mice; conditions: for P.I (Protective index)=TD50/ED50: TD50 Rotarod / ED50 MES
Description: YLS-4C Rotarod system was used in the experiment, wherein the diameter of the rod was 3 cm and the rotate speed was set at 6 rpm. Healthy KM mice (SPF level) were selected, wherein male and female were equal, the body weight was 18 to 22 g. One day before experiment, the mice were place on the rotarod for training and screening. The tail tip of mice was held to make them creep on the rotarod during the training. […] The mice that jumped on the rotarod or griped the rotarod were weed out. In addition, three time periods were set with 1 min for each. […] The qualified mice were randomly caged according to the gender, and allowed to eat and drink freely.
On the day of the experiment, each compound to be tested was freshly formulated by the same method as described in MES experiment. If the compound was not sufficiently suspended, the suspension was further mixed by ultrasonication for 20 min so as to make the compound sufficiently suspended. […] 30 mins after administration, Rotarod experiment was performed and the experiment parameters were the same as the above. The number of mice that fell off from the rorarod was recorded, and the influence of each compound on motor coordination ability of mice was analyzed. The curve for dose of each compound verse motor deficit (percentage) of mice for each compound was obtained according to the analysis of Graphpad Prism 5 software and was shown in FIG. 4.

[3] = Pharmacokinetics and distribution in brain tissue in mice; assay type: in vivo, ICR mice; conditions: for Kp: brain/plasma, read-out: AUC0-t ratio (brain/plasma); for Kp / Cmax / Tmax / half-life / MRT inf / AUC(0-inf) / AUC0-t / clearance / Vd / AUC0-∞: mice; for MRT inf: read-out: MRT0-∞; for Vd: read-out: Vss; for bioavailability: oral, ICR mice, intragastric perfusion 5 mg/kg vs intravenous 2 mg/kg, read-out: F (oral bioavailability)
Description: K43.HCl was formulated to a 0.5 mg/ml solution for intragastric perfusion by using 5% DMSO/5% Tween80/[…] physiological saline; to a 0.2 mg/ml solution for intravenous injection by diluting the above solution for intragastric perfusion with physical saline containing 1% Tween 80.
84 healthy ICR mice (male, body weight, 18-20 g) were fasted for 8 h with access to water at liberty before the experiment. The mice were fed at the same time 2 h after administration of the compound.
After administration by intragastric perfusion, mice were sacrificed by cutting abdominal aorta at the time points set as the above with 3 mice for each time point. 0.5 mL of whole blood was collected for each animal, placed into a heparinized test tube and subjected to centrifugation at 11000 rpm for 5 min to separate plasma, which was then cryopreserved in a −20° C. refrigerator. After the animal was sacrificed, its whole brain was collected, washed with ice-cooled physiological saline to remove residual blood, absorbed to dryness, labeled and cryopreserved in a −20° C. refrigerator. After administration by intravenous injection, 0.5 mL of venous blood was collected from venous plexus behind eyeball, placed into a heparinized test tube and subjected to centrifugation at 11000 rpm for 5 min to separate plasma, which was then cryopreserved in a −20° C. refrigerator. The concentration of each compound in plasma and brain tissue was determined by LC-MS/MS.
Pharmacokinetic parameters after administration were calculated according to the obtained data of plasma concentration, using the non-compartmental model of Phoenix 1.3 software (Pharsight Co., USA).

[4] = male, ICR, mouse, po, intragastric perfusion 5 mg/kg
[5] = male, ICR, mouse, po, intragastric perfusion 5 mg/kg, brain
[6] = male, ICR, mouse, po, intragastric perfusion 5 mg/kg, plasma
[7] = male, ICR, mouse, po, intragastric perfusion 5 mg/kg, plasma, read-out: AUC0-t
[8] = male, ICR, mouse, intravenous injection 2 mg/kg, plasma
[9] = male, ICR, mouse, intravenous injection 2 mg/kg, plasma, read-out: AUC0-t
[10] = intragastric perfusion 5 mg/kg, brain

| Compound | neurotoxicity compared with RTG [2] | Kp [3, 4] | ED50 [1] [mg/kg] | protective effect on convulsive mice induce by MES [1] | P.I (Protective index)=TD50/ED50 [2] | Cmax [3, 5] [ng/g] | Tmax [3, 5] [min] | half-life [3, 5] [min] | MRT inf [3, 5] [min] | AUC(0-inf) [3, 6] [ng·h/mL] | Cmax [3, 6] [ng/mL] | Tmax [3, 6] [min] | half-life [3, 6] [min] | AUC0-t [3, 7] [ng·h/mL] | MRT inf [3, 6] [min] | AUC(0-inf) [3, 8] [ng·h/mL] | clearance [3, 8] [mL/min/kg] | half-life [3, 8] [min] | AUC0-t [3, 9] [ng·h/mL] | MRT inf [3, 8] [min] | further results |
| --- | --- | --- | --- | --- | --- | --- | --- | --- | --- | --- | --- | --- | --- | --- | --- | --- | --- | --- | --- | --- | --- |
| C#CCN(Cc1ccc(F)cc1)c1cc(C)c(NC(=O)OC)c(C)c1 [Compound K43, methyl 4-(N-parafluorobenzyl-N-propargyl-amino)-2,6-dimethylphenylaminoformate] | weaker neurotoxicity than RTG | ≥ 7 | – | – | – | – | – | – | – | – | – | – | – | – | – | – | – | – | – | – | efficacy against MES compared with RTG [1]: higher than that of RTG; also recorded: superior to that of RTG |
| C#CCN(Cc1ccc(F)cc1)c1ccc(NC(=O)OC)c(C)c1 [K41•HCl] | weaker neurotoxicity than RTG | 2.6 | 4.8 | dose dependent protective effect | 21.54 | 1470 | 15 | 37.8 | 66 | 654 | 606 | 15 | 38.4 | 646 | 62.4 | 294 | 114 | 29.4 | 281 | 27 | efficacy against MES compared with RTG ([1]; listed as K31): higher than that of RTG; efficacy against MES compared with RTG ([1]; listed as k41): superior to that of RTG; Vd [3, 8]: 3.04 L/kg; bioavailability ([3]; male, mouse, plasma): 91.9%; AUC0-t [3, 10]: 1680 ng·h/g; AUC0-∞ [3, 10]: 1684 ng·h/g |
| C#CCN(Cc1ccc(F)cc1)c1cc(C)c(NC(=O)OC)c(C)c1.Cl [K43•HCl, methyl 4-(N-parafluorobenzyl-N-propargyl-amino)-2,6-dimethylphenylaminoformate hydrochloride] | – | 7.2 | 1.6 | dose dependent protective effect | 95.25 | 1430 | 15 | 63.6 | 77.4 | 189 | 350 | 15 | 37.2 | 184 | 56.4 | 334 | 100 | 24 | 326 | 25.8 | Vd [3, 8]: 2.61 L/kg; bioavailability ([3]; male, mouse, plasma): 22.5%; AUC0-t [3, 10]: 1329 ng·h/g; AUC0-∞ [3, 10]: 1346 ng·h/g |
